Broadly, the Inhibition is the relative decrease from the control value, in per cent. The inhibition is the relative decrease from the control value, in per cent.

Test [1] concerns KB 3-1. The test is described as follows: Cytotoxicity was evaluated against KB CV-60 cells at 0.1 ug/mL; No cytotoxicity. Format: functional, cell-based. Conditions: Homo sapiens.
The test system of test [2] is KB 3-1. Nature of the test: Cytotoxicity was evaluated against KB-C2 cells at 0.1 ug/mL; No cytotoxicity. Format: functional, cell-based. Particulars: Homo sapiens.
Test [3] relates to KB-CV60. Nature of the test: The compound was evaluated to Inhibit the growth of KB CV-60 cells at 3 ug/mL in the presence of vincristine (0.1 ug/ML).
Test [4] relates to KB 3-1. The test is described as follows: Cytotoxicity was evaluated against KB-3-1 cells at 10 ug/mL. Format: functional. Conditions: Homo sapiens.
For test [5], the system named is KB-CV60. Nature of the test: The compound was evaluated to Inhibit the growth of KB CV-60 cells at 10 ug/mL in the presence of vincristine (0.1 ug/ML).
For test [6], the system named is KB-CV60. Nature of the test: The compound was evaluated to Inhibit the growth of KB CV-60 cells at 1 ug/mL in the presence of vincristine (0.1 ug/ML).
Test [7] relates to KB-C2. The test is described as follows: The compound was evaluated to Inhibit the growth of KB-C2 cells at 3 ug/mL n the presence of colchicine (0.1 ug/ML).
The test system of test [8] is KB-C2. The test is described as follows: The compound was evaluated to Inhibit the growth of KB-C2 cells at 1 ug/mL n the presence of colchicine (0.1 ug/ML).
Test [9] concerns KB-C2. The test is described as follows: The compound was evaluated to Inhibit the growth of KB-C2 cells at 10 ug/mL in the presence of colchicine (0.1 ug/ML).
The subject of test [10] is KB 3-1. Nature of the test: Cytotoxicity was evaluated against KB-3-1 cells at 3 ug/mL. It counts as functional. Conditions: Homo sapiens.

`CC[C@]1(O)C[C@H]2CN(CCc3c([nH]c4ccccc34)[C@@](C(=O)OC)(c3cc4c(cc3OC)N(C=O)[C@H]3[C@@](O)(C(=O)OC)[C@H](OC(C)=O)[C@]5(CC)C=CCN6CC[C@]43[C@@H]65)C2)C1`: the Cytotoxicity result in the test with KB 3-1 [1] and in the test with KB 3-1 [2] was “No cytotoxicity” in each case.

As to `CC(=O)O[C@H]1CC[C@@]2(C)[C@H](C1)[C@@H](OC(C)=O)C=C1[C@@H]2[C@H](O)C[C@]2(C)[C@@H]([C@H](C)[C@H](O)CCC(C)C)CC[C@@H]12`, the Inhibition with KB-CV60 [3] was 64%; in the test with KB-CV60 [5] it was 69%; with KB-CV60 [6], 59%; in the test with KB-C2 [7], 76%; in the test with KB-C2 [8] it was 44%; in the test on KB-C2 [9], 87%. For the same molecule, at 10 µg/mL the inhibition with KB 3-1 [4] was 19%. Also, 3 µg/mL produced 13% inhibition with KB 3-1 [10].

Turning to `CC(=O)O[C@H]1CC[C@@]2(C)[C@H](C1)[C@@H](OC(C)=O)C=C1[C@@H]2[C@H](O)C[C@]2(C)[C@@H]([C@H](C)CCCC(C)C)CC[C@@H]12`, the Inhibition in the test with KB-CV60 [3] is recorded as 25%; in the test on KB-CV60 [5] it was 42%; in the test on KB-CV60 [6], 15%; with KB-C2 [7] it was 69%; in the test on KB-C2 [8], 37%; in the test with KB-C2 [9] it was 88%. Moreover, testing at 10 µg/mL in the test with KB 3-1 [4] gave an inhibition of 39%. In the test with KB 3-1 [10], the inhibition at 3 µg/mL turned out to be 5%.

`CC(=O)O[C@@H]1[C@@H]2[C@@H](OC(C)=O)C=C3[C@H]([C@H](O)C[C@]4(C)[C@@H]([C@H](C)[C@H](O)CCC(C)C)CC[C@@H]34)[C@@]2(C)CC[C@@H]1OC(C)=O` [AGOSTEROL A]: the Inhibition in the test with KB-CV60 [3] is 73%; in the test with KB-CV60 [5], 76%; in the test with KB-CV60 [6] it was 66%; with KB-C2 [7], 82%; with KB-C2 [8] it was 75%; in the test with KB-C2 [9] it was 84%. The same molecule registered an inhibition at 10 µg/mL with KB 3-1 [4] of 13%.

Take `COc1cc2c(c(OC)c1OC)-c1ccc(OC)c(=O)cc1[C@@H](NC(C)=O)CC2`: the Cytotoxicity result with KB 3-1 [1] and with KB 3-1 [2] was “No cytotoxicity” each time.

Source of the values: ChEMBL document CHEMBL1132809, “Synthesis and evaluation of 4-deacetoxyagosterol A as an MDR-modulator” (2000).
